Laboratory results as given in patent US6407085B1, “Medicament containing betasitosterol and/or phytosterol/betasitosterol mixtures” (priority 1997, dated 2002).

Assays:
[1] = oral tolerability of betasitosterol esters; type: in vivo; settings: taken orally
[2] = chloroform; cited from earlier work
[3] = in vivo; cited from earlier work
[4] = cited from earlier work
[5] = dissolving in oils, paraffins, stearates, Vaseline or glycerin with heat; type: physicochemical; settings: for appearance in glycerin after cooling: after heating in glycerin; for appearance in oil after cooling: after heating in oil
Protocol: The solubility of phytosterol/betasitosterol mixtures and betasitosterol metabolites can be accelerated and improved with respect to yield if the effective ingredients are treated in oil, paraffins, stearates, or Vaseline with the application of heat at temperatures of around 70° C. to 160° C., advantageously at 120° C. to 140° C., advantageously over a period of 30 minutes to 3 hours.
If betasitosterol or sodium desoxycholate is heated in diverse natural and mineral oils, paraffins, commercially-available hypoallergenic stearate mixtures, or Vaseline (2 g substance in 100 ml) to 120° C., both substances dissolve fully within 90 minutes. Upon further heating to 150° C. (at 140° C., betasitosterol becomes liquid), betasitosterol dissolves up to around 15% in stearate mixtures, paraffins, and plant and mineral oils. […] In like manner, betasitosterol and sodium desoxycholate can be introduced into glycerin.

[6] = solubility in oils, chloroform and water at room temperature
psoriasis = test: salve applied to the skin in psoriasis; type: in vivo
Protocol: If phytosterol/betasitosterol mixtures, when they are dissolved in the above described form in oil, are stirred into a salve base alone or in a mixture with sodium desoxycholate in aqueous solution in a concentration of 0.5 to 2.0% and the salve base is applied to the skin, the itching of neurodermatitis usually is eased after only 2 to 5 minutes. Inflammation processes with redness and swelling are alleviated after 24 to 48 hours. Thus a histamine antagonistic as well as a cortisone-like effect is determined, but without the side effects of the hormone. In the case of psoriasis, the formation of scales is often reduced even in extreme cases only 24 hours after the first application, particularly with the use of the metabolite desoxycholic acid. Here again the use of such substances is completely unproblematic in contrast to a salve with a component of vitamin-D-like structure, which as a result of the resorption of the vitamin-D-like molecule can be applied only to a limited extent because of the danger of overdosing and thus the influencing of calcium metabolism.

## CC[C@H](CC[C@@H](C)[C@H]1CC[C@H]2[C@@H]3CC=C4C[C@@H](OC(=O)[C@H](O)[C@@H](O)[C@H](O)[C@H](O)CO)CC[C@]4(C)[C@H]3CC[C@]12C)C(C)C [betasitosterol gluconic acid ester]
[1]
  tolerability: free of side effects and very well tolerated

## CC[C@H](CC[C@@H](C)[C@H]1CC[C@H]2[C@@H]3CC=C4C[C@@H](O)CC[C@]4(C)[C@H]3CC[C@]12C)C(C)C [betasitosterol]
[2]
  solubility (D'ans-Lax): soluble in chloroform
[3]
  portion metabolized into cholic acid and chenodesoxycholic acid: around 20%
[4]; healthy subjects
  resorption quotient: around 5%
[4]; oral administration of up to 24 g per day
  blood count: 10 mg
[5]
  appearance in glycerin after cooling: slightly opalescent
  appearance in oil after cooling: slightly opalescent
[5]; heated to 120° C.
  dissolving in glycerin: dissolve completely clear
[5]; heating to 150° C., stearate mixtures, paraffins, plant and mineral oils
  amount dissolved: around 15%
[6]
  solubility in oil on addition of sodium desoxycholate: further improved
[6]; linseed oil, safflower oil, neutral oil, standing longer than 24 h at room temperature
  solubility in oil at room temperature: dissolves in sufficient quantity

## desoxycholic acid
psoriasis
  time after first application until formation of scales is reduced: 24 h
[5]
  appearance in glycerin after cooling: white pasty mass
[5]; heated to 120° C.
  appearance with safflower oil: cloudy-opalescent emulsion

## sodium desoxycholate
[5]
  appearance in glycerin after cooling: remains clear
  appearance in oil after cooling: remains clear
[5]; heated to 120° C.
  dissolving in glycerin: dissolve completely clear
[6]
  water solubility: relatively water soluble
